Test results from patent US5096918A, “Isoindoline nitromethane derivatives” (Imperial Chemical Industries PLC, priority 1989, dated 1992).

Molecular target: T1, aldose reductase (Bos taurus, UniProt P16116)
T1 construct: isolated in known manner from bovine lenses; from tissue; host or cells: bovine lens
Assay: in vitro inhibition of partially purified aldose reductase (reduction of glucose to sorbitol, spectrophotometric)
Format: biochemical
Details: partially purified enzyme from bovine lenses
Method: Thus, partially purified aldose reductase is isolated in known manner from bovine lenses. The percentage inhibition of this enzyme's ability in vitro to catalyse the reduction of aldoses to polyhydric alcohols, and particularly to reduce glucose to sorbitol, caused by a test compound is then determined using standard spectrophotometric methods.

Compound `O=[N+]([O-])CS(=O)(=O)N1CCCCC1` [Example 1, N-(nitromethylsulphonyl)piperidine] has an IC50 of 330 nM.

`O=[N+]([O-])CS(=O)(=O)N1CCOCC1` [N-(nitromethylsulphonyl)morpholine] showed an IC50 of 880 nM.
